Data from patent publication US20090215859A1, “Compositions and methods for modulating dhr96” (priority 2004, published 2009).
“Also recorded” adds a separate entry of the source.

How the values were obtained:
[1] = test system: wild type (Canton S) and DHR96 mutant adult flies; assay: Toxicity assay: adult flies exposed to DDT in 5% sucrose on filter paper, survival scored; type: in vivo, Drosophila melanogaster
Protocol: A time course is shown. 20 wild type or DHR96^E25 mutant flies were treated with a high concentration of DDT (100 ng/μl) and assayed for survival every hour up to 10 hours. Each assay (A+B) was done in triplicate to determine the standard deviation as shown by the error bars.
(§1) A dose response curve is shown. Twenty wild type or DHR96^E25 mutant flies were exposed to eight DDT concentrations, from 0.78 to 100 ng/μl, and then scored for survival 10 hours later. A similar test was conducted for sensitivity to tebufenizide (FIG. 11C) using larvae raised on food supplemented with the drug.
Adult flies were raised on standard cornmeal/agar food and starved overnight under humid conditions at 25 0 C before treatment with DDT. A DDT stock solution was prepared by dissolving crystalline DDT (Sigma) in 100% ethanol. Appropriate DDT dilutions were made by diluting the DDT stock with 5% sucrose and pipetting 275 μl of the solution onto a strip of Whatman filter paper inside a small glass scintillation vial. Twenty adult flies were placed in each vial which was plugged with cotton. Mortality was scored 10 hours later at room temperature. For each DDT concentration, three replicates, each of twenty adult flies, were used. For the time course assay, 100 ng/μl of DDT was used and mortality scored every hour for 10 hours.
As a test of DHR96 acting in a xenobiotic pathway, DHR96 mutants were tested for sensitivity to the pesticide DDT. Adult wild type flies (Canton S) and DHR96^16A were exposed or DHR96^E25 flies to varying concentrations of DDT and recorded survival rates after a fixed time.
(§2) The adult Canton S flies and the DHR96E25 outcrossed lines were exposed to varying concentrations of drug and recorded effects after a fixed time (FIG. 11). DDT was assayed by starving young healthy adult flies overnight and then transferring them to vials, in three groups of 20 flies each, with filter paper soaked with 5% sucrose alone or 5% sucrose and DDT at different concentrations. The number of living flies was scored after 23 hours. […] Tebufenozide was administered to larvae in the food, and the number of surviving adult flies was scored.

[2] = solvent or supplied form; cited from earlier work
Cyp6g1 = Cyp6g1 induction by DDT in Canton S flies; type: in vivo, Drosophila melanogaster; details: one experiment
Description: Validation can be conducted on selected genes, covering the different classes of detoxification pathways as well as new players that identified. Similar microarray studies using at least two other compounds, depending on which compounds show an effect in the viability and behavioral assays. It will be confirmed that wild type Canton S flies show a response to DDT using Cyp12d1 and other P450 genes as probes for northern blot hybridization. […] Other pesticides can also be surveyed for effects on a select group of Cyp gene targets to identify other compounds for use in comparative microarray profiling. […] Determining the transcriptional response to more than one xenobiotic compound can provide an initial impression of how insects respond to different toxins in their environment. […] Alternatively, the genetic response may be fine-tuned to combat specific xenobiotic compounds.

C. elegans nhr-8 mutant = details: mutation in the nuclear receptor nhr-8 gene; cited from earlier work
DHR38 = details: cultured larval organs; cited from earlier work
[3] = test system: Cyp6a2 and Cyp6a8 transcription; assay: Northern blot hybridization of Cyp transcription in adult flies treated with phenobarbital; details: adult flies treated with 0.3%, 1%, and 3% phenobarbital
Protocol: Each treatment is done in triplicate. RNA is extracted from each set of animals, purified by TRIzol extraction (Gibco BRL) followed by RNeasy column chromatography (Qiagen), and ethanol precipitation. The RNA is then labeled and hybridized to Affymetrix GeneChip® Drosophila Genome 2.0 arrays designed to detect 18,500 Drosophila transcripts. Data is then analyzed using DChip 1.3 (http://biosun1.harvard.edu/complab/dchip/) and Significance Analysis of Microarrays (SAM).

[4] = test system: Canton S and outcrossed DHR96E25 mutant larvae; assay: Tebufenozide administered to larvae in the food, surviving adult flies scored; type: in vivo, Drosophila melanogaster; details: larvae raised on food supplemented with the drug
Protocol: as §1, §2
The above assays are for testing the effect of xenobiotics on adult flies. Compounds can also be tested for their larvicidal effects by administering them in the food to staged populations of larvae (Grant et al. Bull. Envir. Contam. Tox. 69:35-40, 2002). DHR96 and Canton S control flies are maintained on normal cornmeal/molasses agar supplemented with yeast. Egg lays are collected overnight from these stocks and used to innoculate fresh vials of food supplemented with a specific concentration of the drug to be tested. […]

[5] = target: T1, GAL4-DHR96 fusion protein (Drosophila melanogaster, UniProt Q24143); assay: GAL4-LBD activation assay in cultured third instar larval organs (UAS-lacZ, Xgal staining); type: cell-based; details: organs of heat-induced hs-GAL4-DHR96; UAS-lacZ third instar larvae cultured with 1×10^−5 M tebufenozide
T1 construct: expressed in transfected cells; host or cells: transgenic Drosophila third instar larvae (hs-GAL4-DHR96; UAS-lacZ), dissected organs in culture
Description: A gene fusion of the GAL4 DNA binding domain (DBD) and DHR96 ligand binding domain (LBD) is expressed upon heat-induction of the hsp70 promoter. The resultant fusion protein can bind to GAL4 response elements (UAS) on a seperate transgenic construct, but will only activate lacZ transcription in the presence of an appropriate ligand and/or co-factors (a ligand is shown). β-galactosidase expression is detected as the substrate from an Xgal staining reaction.
Third instar larvae were heat-treated to induce GAL4-DHR96 expression, dissected, and organs were cultured in the presence of 1×10^−5 M tebufenozide. UAS-lacZ reporter gene expression was detected by Xgal staining. […]
DHR96 activation can be assayed for by using a method established to follow the activation status of a nuclear receptor ligand binding domain (LBD) in a developing animal. […] Expression of β-galactosidase can be detected by histochemical staining using X-gal as a substrate, generating a blue dye (FIGS. 13, 14). […]
An advantage of the GAL4-LBD system is that it can be used in tissues dissected from transgenic larvae to test specific compounds for their ability to activate the fusion protein. […] A similar assay can be used to test the ability of xenobiotic compounds to activate the GAL4-DHR96 fusion protein in cultured larval organs, using either UAS-lacZ or UAS-GFP as a readout. […]

[6] = living flies scored after 23 hours

T1 sequence (Q24143 99-723): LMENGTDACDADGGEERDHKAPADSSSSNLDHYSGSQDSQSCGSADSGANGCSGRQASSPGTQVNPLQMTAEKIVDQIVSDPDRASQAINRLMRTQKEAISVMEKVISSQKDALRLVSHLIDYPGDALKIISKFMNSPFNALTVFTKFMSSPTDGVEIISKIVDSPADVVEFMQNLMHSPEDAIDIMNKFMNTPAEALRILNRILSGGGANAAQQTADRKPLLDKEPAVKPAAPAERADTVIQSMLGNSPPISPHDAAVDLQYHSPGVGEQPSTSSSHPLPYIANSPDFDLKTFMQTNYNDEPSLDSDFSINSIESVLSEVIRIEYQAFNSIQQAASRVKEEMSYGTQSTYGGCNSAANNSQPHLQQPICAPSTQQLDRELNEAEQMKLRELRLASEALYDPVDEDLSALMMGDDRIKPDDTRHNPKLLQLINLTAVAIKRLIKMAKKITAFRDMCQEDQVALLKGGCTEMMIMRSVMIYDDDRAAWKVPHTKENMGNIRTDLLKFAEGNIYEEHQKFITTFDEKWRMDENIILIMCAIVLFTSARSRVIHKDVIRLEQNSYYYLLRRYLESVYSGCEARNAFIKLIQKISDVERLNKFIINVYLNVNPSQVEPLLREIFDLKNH

Clc1ccc(C(c2ccc(Cl)cc2)C(Cl)(Cl)Cl)cc1 [DDT]
Speed of death at a fixed concentration of DDT, DHR96 homozygotes vs wild type flies ([1]; 100 ng/μl DDT, mortality scored every hour for 10 hours): died more rapidly
Sensitivity to DDT (survival after a fixed time at varying concentrations), DHR96 mutants compared to control animals ([1]; adult DHR96^16A or DHR96^E25 flies vs Canton S, 0.78 to 100 ng/μl DDT, scored 10 hours later): more sensitive
Sensitivity to DDT treatment, original DHR96E25 mutant line vs Canton S [1, 6]: more sensitive
Sensitivity to DDT, outcrossed DHR96E25 line vs Canton S [1, 6]: no such sensitivity
Solubility [2]: ethanol
Cyp6g1 induction (Cyp6g1): low level

COc1cc2c(c(OC)c1OC)-c1ccc(OC)c(=O)cc1[C@@H](NC(C)=O)CC2 [Colchicine]
Solubility [2]: ethanol
Resistance of nhr-8 mutant to the compound (C. elegans nhr-8 mutant): reduced resistance

CO[C@H]1/C=C/O[C@@]2(C)Oc3c(C)c(O)c4c(O)c(c(/C=N/N5CCN(C)CC5)c(O)c4c3C2=O)NC(=O)/C(C)=C\C=C\[C@H](C)[C@H](O)[C@@H](C)[C@@H](O)[C@@H](C)[C@H](OC(C)=O)[C@@H]1C [Rifampicin]
Solubility [2]: DMSO

CCN(CC)CCCC(C)Nc1ccnc2cc(Cl)ccc12 (stereo not shown) [chloroquine]
Resistance of nhr-8 mutant to the compound (C. elegans nhr-8 mutant): reduced resistance

O=[N+]([O-])/C=C1\NCCCS1 [Nithiazine]
Solubility [2]: water

CCN(CC)C(=S)[S-].O.O.O.[Na+] [Sodium diethyldithiocarbamate trihydrate]
Solubility [2]: water

C[n+]1ccc(-c2cc[n+](C)cc2)cc1 [Paraquat]
Solubility [2]: water

C[C@H]([C@H](O)CCC(C)(C)O)[C@H]1CC[C@@]2(O)C3=CC(=O)[C@@H]4C[C@@H](O)[C@@H](O)C[C@]4(C)[C@H]3CC[C@]12C [α-ecdysone]
Activation of DHR38 in the GAL4-LBD system (DHR38): can be activated

CC(C)(O)CC[C@@H](O)[C@](C)(O)[C@H]1CC[C@@]2(O)C3=CC(=O)[C@@H]4C[C@H](O)[C@@H](O)C[C@]4(C)[C@H]3CC[C@]12C [3-epi-20-hydroxyecdysone]
Activation of DHR38 in the GAL4-LBD system (DHR38): can be activated

CCC1(c2ccccc2)C(=O)NC(=O)NC1=O [phenobarbital]
Cyp6a2 and Cyp6a8 transcription in the DHR96 mutant [3]: no change in expression
Cyp6a2 and Cyp6a8 transcription in wild type animals [3]: dramatic induction

CC(=O)[C@H]1[C@H](C#N)C[C@H]2[C@@H]3CC=C4C[C@@H](O)CC[C@]4(C)[C@H]3CC[C@@]21C [PCN]
Solubility [2]: DMSO

CNC(=O)Oc1cccc2ccccc12 [Carbaryl]
Solubility [2]: water

COP(=S)(OC)Oc1ccc([N+](=O)[O-])cc1 [Methyl parathion]
Solubility [2]: acetone

CCc1ccc(C(=O)NN(C(=O)c2cc(C)cc(C)c2)C(C)(C)C)cc1 [tebufenozide]
Sensitivity of the outcrossed DHR96E25 mutant to tebufenozide (surviving adult flies) [4]: slight sensitivity
Activation of GAL4-DHR96 (UAS-lacZ reporter gene expression) [5]: activated; also recorded: reproducible and distinct pattern of activation
